From PMC6272914, “Bio-Guided Isolation of Methanol-Soluble Metabolites of Common Spruce (Picea abies) Bark by-Products and Investigation of Their Dermo-Cosmetic Properties” (Molecules, 2016)

What follows are molecules tested against collagenase from Clostridium histolyticum (assay: fluorogenic MMP2 substrate collagenase inhibition assay).
Type: biochemical, Hathewaya histolytica
In the case of `CC(C)C[C@H](NP(=O)(O)O[C@@H]1O[C@@H](C)[C@H](O)[C@@H](O)[C@H]1O)C(=O)N[C@@H](Cc1c[nH]c2ccccc12)C(=O)O` [PRMD, phosphoramidon, reference compound], the IC50 is reported as 6.9 µM. `O=C1c2c(O)cc(O)cc2O[C@H](c2ccc(O)c(O)c2)[C@H]1O` [compound 4, taxifolin] showed an IC50 of 193 µM. Molecule `OC[C@H]1O[C@@H](Oc2cc(O)cc(/C=C/c3ccc(O)cc3)c2)[C@H](O)[C@@H](O)[C@@H]1O` [compound 6, E-piceid] has an IC50 of 259 µM. Work on `OC[C@H]1O[C@@H](Oc2cc(O)cc(/C=C/c3ccc(O)c(O)c3)c2)[C@H](O)[C@@H](O)[C@@H]1O` [compound 8, E-astringin] yielded an IC50 of 125 µM. `O=C1c2c(O)cc(O)cc2O[C@H](c2ccc(O)c(O[C@@H]3O[C@H](CO)[C@@H](O)[C@H](O)[C@H]3O)c2)[C@H]1O` [compound 9, taxifolin-3′-O-glucoside] gave an IC50 of 141 µM.
